According to PMC5829649, “The ribosomal A-site finger is crucial for binding and activation of the stringent factor RelA” (Nucleic Acids Research, 2018):

How the values were obtained:
RelA [1] = target: T1, RelA (Escherichia coli, UniProt P0AG20); test: 3H-GDP conversion to ppGpp by purified RelA with vacant 70S or starved ribosomal complexes, TLC; assay type: biochemical
T1 construct: untagged native full-length RelA
T1 sequence (P0AG20 1-744): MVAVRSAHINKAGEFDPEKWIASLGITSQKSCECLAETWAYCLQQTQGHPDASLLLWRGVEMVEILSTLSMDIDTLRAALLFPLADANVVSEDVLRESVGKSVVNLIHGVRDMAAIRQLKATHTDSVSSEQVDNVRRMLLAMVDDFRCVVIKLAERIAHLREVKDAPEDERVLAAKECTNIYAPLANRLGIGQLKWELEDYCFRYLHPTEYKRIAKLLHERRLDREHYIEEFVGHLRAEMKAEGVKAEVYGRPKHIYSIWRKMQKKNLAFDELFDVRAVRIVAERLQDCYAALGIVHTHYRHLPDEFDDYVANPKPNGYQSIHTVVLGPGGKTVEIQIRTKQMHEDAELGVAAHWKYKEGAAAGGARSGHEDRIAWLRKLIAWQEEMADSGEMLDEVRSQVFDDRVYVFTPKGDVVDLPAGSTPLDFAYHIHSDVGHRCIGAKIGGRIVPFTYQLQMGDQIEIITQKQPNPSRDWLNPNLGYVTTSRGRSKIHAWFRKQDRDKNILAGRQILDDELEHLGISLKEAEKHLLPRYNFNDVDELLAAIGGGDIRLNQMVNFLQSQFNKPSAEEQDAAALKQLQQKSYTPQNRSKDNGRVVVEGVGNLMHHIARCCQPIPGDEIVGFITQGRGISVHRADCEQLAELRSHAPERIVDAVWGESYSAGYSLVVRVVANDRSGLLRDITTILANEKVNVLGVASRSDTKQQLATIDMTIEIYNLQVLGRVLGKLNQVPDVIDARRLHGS

RelA [2] = target: T1, RelA; test: 3H-GTP conversion to pppGpp by purified RelA with ribosomes, TLC; assay type: biochemical
RelA [3] = target: T1, RelA; test: product of 3H-GDP conversion by purified RelA; added at […] it only mildly modulates activity; assay type: biochemical
RelA [4] = target: T1, RelA; test: 3H-ppGpp synthesis assay (TLC) with purified RelA, pppGpp titration (activation), RelA alone or with starved ribosomal complexes; assay type: biochemical
RelA (untagged native) = target: T2, RelA (untagged native) (Escherichia coli DH5alpha, UniProt P0AG20 1-744); test: EMSA; 70 nM RNA, up to 60x excess RelA; weak binding (KD above 3 uM) not excluded; HEPES:Polymix buffer, 5 mM Mg2+, pH 7.5, 37 C; conditions: protein: recombinant; tags: none; hairpin
T2 sequence: T1 sequence (P0AG20 1-744)

Q: Which “3H-GDP conversion to ppGpp by purified RelA with vacant 70S or starved ribosomal” value (RelA [1]) does the source give for `Nc1nc2c(ncn2[C@@H]2O[C@H](COP(=O)(O)OP(=O)(O)O)[C@@H](O)[C@H]2O)c(=O)[nH]1` [GDP] here?
A: 1077±62 ppGpp per RelA per minute

Q: With `Nc1nc2c(ncn2[C@@H]2O[C@H](COP(=O)(O)OP(=O)(O)OP(=O)(O)O)[C@@H](O)[C@H]2O)c(=O)[nH]1` [GTP] as the molecule, how does the “3H-GTP conversion to pppGpp by purified RelA with ribosomes, TLC” value (RelA [2]) read?
A: 896 ± 29 pppGpp reactions per RelA per minute

Q: For `Nc1nc2c(ncn2[C@@H]2O[C@H](COP(=O)(O)OP(=O)(O)O)[C@@H](OP(=O)(O)OP(=O)(O)O)[C@H]2O)c(=O)[nH]1` [ppGpp], which “product of 3H-GDP conversion by purified RelA; added at 100 μM it only mildly mo” value (RelA [3]) is on record?
A: When GTP is used as a substrate, ppGpp acts as a weak inhibitor

Q: How did the EC50 (RelA [4]) turn out when `Nc1nc2c(ncn2[C@@H]2O[C@H](COP(=O)(O)OP(=O)(O)OP(=O)(O)O)[C@@H](OP(=O)(O)OP(=O)(O)O)[C@H]2O)c(=O)[nH]1` [pppGpp] was run?
A: 500 to 600 nM

Q: Does UCGGCAAGGGGGUCAUCCCGACUUACCAACCCGA (structured_RNA) [ASF RNA oligonucleotide (23S rRNA H38, 34 nt)] bind (RelA (untagged native))?
A: no binding
